According to ChEMBL document CHEMBL3102790, “Synthesis of quercetin glycosides and their melanogenesis stimulatory activity in B16 melanoma cells” (Bioorg Med Chem, 2014):

Key:
B16-F10 [1] = assay: Induction of melanogenesis in mouse B16F10 cells assessed as intracellular melanin level at 200 uM after 72 hrs; type: functional
[2] = target: T1, Tyrosinase (Agaricus bisporus) (UniProt O42713); assay: Induction of mushroom tyrosinase activity using L-tyrosine as substrate at 100 uM after 30 mins
T1 sequence (whole entry): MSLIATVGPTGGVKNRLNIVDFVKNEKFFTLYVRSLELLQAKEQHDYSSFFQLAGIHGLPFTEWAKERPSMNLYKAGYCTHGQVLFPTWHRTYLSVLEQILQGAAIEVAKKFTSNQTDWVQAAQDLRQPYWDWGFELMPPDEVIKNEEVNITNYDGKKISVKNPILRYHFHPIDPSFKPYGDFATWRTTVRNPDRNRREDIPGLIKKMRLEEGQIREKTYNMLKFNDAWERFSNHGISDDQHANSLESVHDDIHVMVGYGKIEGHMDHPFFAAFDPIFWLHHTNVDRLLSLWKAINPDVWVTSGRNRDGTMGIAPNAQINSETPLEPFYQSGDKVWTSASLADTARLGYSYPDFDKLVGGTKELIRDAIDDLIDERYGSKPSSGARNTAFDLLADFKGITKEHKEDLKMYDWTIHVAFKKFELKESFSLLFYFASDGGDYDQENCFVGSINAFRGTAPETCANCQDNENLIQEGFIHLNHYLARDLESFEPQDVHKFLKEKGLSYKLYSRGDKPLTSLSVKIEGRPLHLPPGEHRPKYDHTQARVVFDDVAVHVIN

[3] = target: T1, Tyrosinase (Agaricus bisporus); assay: Induction of mushroom tyrosinase activity using L-DOPA as substrate at 100 uM after 30 mins
B16-F10 [4] = assay: Induction of melanogenesis in mouse B16F10 cells assessed as intracellular melanin level at 10 uM after 72 hrs; type: functional
[5] = target: T1, Tyrosinase (Agaricus bisporus); assay: Induction of mushroom tyrosinase activity using L-DOPA as substrate at 50 uM after 30 mins
[6] = target: T1, Tyrosinase (Agaricus bisporus); assay: Induction of mushroom tyrosinase activity using L-tyrosine as substrate at 200 uM after 30 mins
[7] = Cytotoxicity against mouse B16F10 cells assessed as cell viability at 200 uM by MTT assay; type: cell-based, B16-F10; settings: read-out: Activity
[8] = target: T1, Tyrosinase (Agaricus bisporus); assay: Induction of mushroom tyrosinase activity using L-DOPA as substrate at 200 uM after 30 mins
B16-F10 [9] = assay: Induction of melanogenesis in mouse B16F10 cells assessed as intracellular melanin level at 100 uM after 72 hrs; type: functional
[10] = Cytotoxicity against mouse B16F10 cells assessed as cell viability at 10 uM by MTT assay; type: cell-based, B16-F10; settings: read-out: Activity
[11] = Cytotoxicity against mouse B16F10 cells assessed as cell viability at 100 uM by MTT assay; type: cell-based, B16-F10; settings: read-out: Activity
[12] = target: T1, Tyrosinase (Agaricus bisporus); assay: Induction of mushroom tyrosinase activity using L-tyrosine as substrate at 50 uM after 30 mins
B16-F10 [13] = assay: Induction of melanogenesis in mouse B16F10 cells assessed as intracellular melanin level after 72 hrs; type: functional, cell-based
[14] = Cytotoxicity against mouse B16F10 cells assessed as cell viability at 125 uM by MTT assay; type: cell-based, B16-F10; settings: read-out: Activity
[15] = Cytotoxicity against mouse B16F10 cells assessed as cell viability at 500 uM by MTT assay; type: cell-based, B16-F10; settings: read-out: Activity
B16-F10 [16] = assay: Induction of melanogenesis in mouse B16F10 cells assessed as intracellular melanin level at 250 uM after 72 hrs; type: functional
B16-F10 [17] = assay: Induction of melanogenesis in mouse B16F10 cells assessed as intracellular melanin level at 500 uM after 72 hrs; type: functional
[18] = Cytotoxicity against mouse B16F10 cells assessed as cell viability at 250 uM by MTT assay; type: cell-based, B16-F10; settings: read-out: Activity
B16-F10 [19] = assay: Induction of melanogenesis in mouse B16F10 cells assessed as intracellular melanin level at 125 uM after 72 hrs; type: functional

| SMILES | Activity (B16-F10 [1]) [%] | Activity [2] [%] | Activity [3] [%] | Activity (B16-F10 [4]) [%] | Activity [5] [%] | Activity [6] [%] | viability at 200 µM [7] [%] | Activity [8] [%] | Activity (B16-F10 [9]) [%] | viability at 10 µM [10] [%] | viability at 100 µM [11] [%] | Activity [12] [%] | Activity (B16-F10 [13]) | viability at 125 µM [14] [%] | viability at 500 µM [15] [%] | Activity (B16-F10 [16]) [%] | Activity (B16-F10 [17]) [%] | viability at 250 µM [18] [%] | Activity (B16-F10 [19]) [%] |
| --- | --- | --- | --- | --- | --- | --- | --- | --- | --- | --- | --- | --- | --- | --- | --- | --- | --- | --- | --- |
| O=c1c(O[C@@H]2O[C@H](CO)[C@@H](O[C@@H]3O[C@H](CO)[C@@H](O)[C@H](O)[C@H]3O)[C@H](O)[C@H]2O)c(-c2ccc(O)c(O)c2)oc2cc(O[C@@H]3O[C@H](CO)[C@@H](O)[C@H](O)[C@H]3O)cc(O)c12 | 119 | 102 | 104 | 91.1 | 102 | 104 | 98.7 | 104 | 78.9 | 95.1 | 113 | 103 |  |  |  |  |  |  |  |
| O=c1c(O[C@@H]2O[C@H](CO)[C@@H](O[C@@H]3O[C@H](CO)[C@@H](O)[C@H](O)[C@H]3O)[C@H](O)[C@H]2O)c(-c2ccc(O)c(O)c2)oc2cc(O[C@@H]3O[C@H](CO)[C@@H](O[C@@H]4O[C@H](CO)[C@@H](O)[C@H](O)[C@H]4O)[C@H](O)[C@H]3O)cc(O)c12 | 102.6 | 104 | 102 | 80.3 | 101 | 101 | 95.2 | 103 | 97.8 | 105 | 93.9 | 104 |  |  |  |  |  |  |  |
| O=c1c(O[C@@H]2O[C@H](CO)[C@@H](O)[C@H](O)[C@H]2O)c(-c2ccc(O)c(O)c2)oc2cc(O)cc(O)c12 [ISOQUERCETIN] | 206.9 | 96.2 | 110 | 116.3 | 107 | 104 | 68.4 | 116 | 157.1 | 105 | 80.9 | 112 | Dose-dependent effect |  |  |  |  |  |  |
| Cn1c(=O)c2nc[nH]c2n(C)c1=O.O [THEOPHYLLINE] |  |  |  |  |  |  |  |  |  |  |  |  |  | 95.5 | 91.4 | 131.7 | 166.8 | 94.4 | 127.6 |
| O=c1c(O[C@@H]2O[C@H](CO)[C@@H](O[C@@H]3O[C@H](CO)[C@@H](O)[C@H](O)[C@H]3O)[C@H](O)[C@H]2O)c(-c2ccc(O[C@@H]3O[C@H](CO)[C@@H](O)[C@H](O)[C@H]3O)c(O)c2)oc2cc(O)cc(O)c12 | 190.5 | 95.9 | 103 | 137 | 101 | 106 | 74.8 | 101 | 151.5 | 90 | 86.8 | 105 | Dose-dependent effect |  |  |  |  |  |  |
| O=c1c(O[C@@H]2O[C@H](CO)[C@@H](O)[C@H](O)[C@H]2O)c(-c2ccc(O[C@@H]3O[C@H](CO)[C@@H](O[C@@H]4O[C@H](CO)[C@@H](O)[C@H](O)[C@H]4O)[C@H](O)[C@H]3O)c(O)c2)oc2cc(O)cc(O)c12 | 96.3 | 85.2 | 105 | 96.8 | 103 | 82.4 | 106 | 109 | 90.9 | 97.8 | 107 | 88.9 |  |  |  |  |  |  |  |
| O=c1c(O[C@@H]2O[C@H](CO)[C@@H](O[C@@H]3O[C@H](CO)[C@@H](O)[C@H](O)[C@H]3O)[C@H](O)[C@H]2O)c(-c2ccc(O)c(O)c2)oc2cc(O)cc(O)c12 | 176 | 95 | 107 | 102.6 | 103 | 82.2 | 81.1 | 112 | 126.8 | 99.6 | 93.2 | 97.5 | Dose-dependent effect |  |  |  |  |  |  |
| O=c1c(O[C@@H]2O[C@H](CO)[C@@H](O)[C@H](O)[C@H]2O)c(-c2ccc(O[C@@H]3O[C@H](CO)[C@@H](O)[C@H](O)[C@H]3O)c(O)c2)oc2cc(O)cc(O)c12 | 92.6 | 98.8 | 99.3 | 89.7 | 102 | 94.3 | 77.4 | 99.3 | 90.4 | 107 | 104 | 101 |  |  |  |  |  |  |  |
| O=c1c(O[C@@H]2O[C@H](CO)[C@@H](O[C@@H]3O[C@H](CO)[C@@H](O)[C@H](O)[C@H]3O)[C@H](O)[C@H]2O)c(-c2ccc(O[C@@H]3O[C@H](CO)[C@@H](O[C@@H]4O[C@H](CO)[C@@H](O)[C@H](O)[C@H]4O)[C@H](O)[C@H]3O)c(O)c2)oc2cc(O)cc(O)c12 | 99.7 | 95 | 103 | 79.7 | 107 | 97.6 | 99.7 | 108 | 84.77 | 107 | 106 | 100 |  |  |  |  |  |  |  |
| O=c1c(O[C@@H]2O[C@H](CO)[C@@H](O)[C@H](O)[C@H]2O)c(-c2ccc(O)c(O)c2)oc2cc(O[C@@H]3O[C@H](CO)[C@@H](O[C@@H]4O[C@H](CO)[C@@H](O)[C@H](O)[C@H]4O)[C@H](O)[C@H]3O)cc(O)c12 | 83.8 | 89 | 105 | 91.1 | 108 | 85.6 | 111 | 110 | 78.9 | 95.1 | 113 | 95.2 |  |  |  |  |  |  |  |
| O=c1c(O[C@@H]2O[C@H](CO)[C@@H](O)[C@H](O)[C@H]2O)c(-c2ccc(O)c(O)c2)oc2cc(O[C@@H]3O[C@H](CO)[C@@H](O)[C@H](O)[C@H]3O)cc(O)c12 | 86.5 | 85.5 | 103 | 85 | 103 | 86.7 | 114 | 106 | 113.9 | 97.7 | 78 | 92.8 |  |  |  |  |  |  |  |
